Test results from patent US20240408096A1, “DOSING REGIMENS FOR ORAL ALK2 KINASE INHIBITORS” (BioCryst Pharmaceuticals, Inc., priority 2020, published 2024).
“Also recorded” adds a separate entry of the source.

Columns and labels:
HO bone formation = assay: mouse model of HO bone formation; assay type: in vivo; conditions: dosing for 21 days
[1] = nonclinical PK / toxicokinetic assessments; assay type: in vivo
CYP2A6 = biological target: T1, CYP2A6 (Homo sapiens, UniProt P11509); assay: CYP inhibition in vitro; assay type: in vitro ADME
T1 sequence (P11509 1-494): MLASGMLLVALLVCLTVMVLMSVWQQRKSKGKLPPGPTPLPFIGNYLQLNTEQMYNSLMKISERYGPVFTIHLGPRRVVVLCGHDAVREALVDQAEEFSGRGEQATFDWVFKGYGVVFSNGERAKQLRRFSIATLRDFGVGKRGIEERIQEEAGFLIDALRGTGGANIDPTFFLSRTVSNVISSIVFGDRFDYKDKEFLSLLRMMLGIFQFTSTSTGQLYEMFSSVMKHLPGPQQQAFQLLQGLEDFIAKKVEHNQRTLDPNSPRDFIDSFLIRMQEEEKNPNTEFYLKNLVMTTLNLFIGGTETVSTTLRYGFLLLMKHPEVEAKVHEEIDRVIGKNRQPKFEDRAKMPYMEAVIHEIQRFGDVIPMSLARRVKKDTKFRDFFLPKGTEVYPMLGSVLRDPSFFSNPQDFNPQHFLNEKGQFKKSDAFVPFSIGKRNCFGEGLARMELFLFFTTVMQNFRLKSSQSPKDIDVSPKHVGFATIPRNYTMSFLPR

[2] = Phase 1 Part 2 (MAD) plasma PK; assay type: in vivo, human; conditions: for Cmax / AUC0-24 / Tmax / AUCtau / Ctau / t1/2: Part 2 MAD; for Cmax / AUC0-24 / AUCtau / Ctau: geometric mean (CV%); for Tmax / t1/2: median (min, max)
Description: Four sequential MAD cohorts were dosed.
For each cohort of Part 2, the daily dose of study drug was administered as a single dose (1 time daily or QD). Similar to Part 1 of the study, following a screening period to determine eligibility, subjects in each cohort entered the CRU on the […] of Day −1. Study eligibility was re-confirmed upon admission to the CRU, and subjects remained in the CRU overnight prior to dosing on Day 1. Subjects received a final morning dose of study drug on the last day of dosing. Subjects were discharged from the CRU following sample collection on Day 11. Dosage administration was supervised by study personnel and all subjects completed dosing per protocol. […] Subjects returned to the CRU on Day 23 (+2 days) for final follow-up safety assessments.
Serial venous blood samples were withdrawn via an indwelling cannula or by venipuncture according to the schedule in Tables 4 and 5 for Parts 1 and 2, respectively. Samples were collected into 4 mL lithium heparin tubes. The acceptable deviations from the nominal blood sampling times in Part 1 and Part 2 are as follows: the pre-dose blood sample will be taken ≤1 hour before dosing; 0 to 1 hour post-dose samples will be taken within +2 minutes of the nominal post-dose sampling time; >1 to 12 hours post-dose samples will be taken within +10 minutes of the nominal post-dose sampling time; and >12 hours post-dose samples will be taken within +30 minutes of the nominal post-dose sampling time if subjects are resident in the clinic. […]
In all derivations of PK parameters, 0 will be substituted for concentrations below the quantification limit (BQL) of the assay. Samples that are BQL but are between 2 samples with detectable concentrations will be excluded from PK analysis.
Dose proportionality was evaluated over all fasted doses within a study part based upon AUC0-inf (Part 1), AUCtau (Part 2), AUC0-t, and Cmax using the power model. The analysis was performed for Day 1 (Parts 1 and 2) and Day 7 (Part 2).
Dose proportionality for PK parameters was assessed by restricted maximum likelihood using SAS PROC MIXED (SAS STAT software, Cary N.C.). The mean slope was estimated from the power model and the corresponding 90% confidence interval (CI) calculated. Dose proportionality was also examined using an analysis of variance (ANOVA) method, where PK parameters for each dose were compared with a reference dose on a pair-wise basis. The ratio of geometric least squares (GLS) means and the corresponding 90% CI was estimated for each PK parameter of interest.
Accumulation ratios were calculated using AUC values from serial sampling after the first and last dose in Part 2. […] A mixed-effects model with a fixed effect for day and a random subject effect was used to estimate the difference between AUCtau and AUC0-t on the log scale.
Time to steady-state was evaluated in Part 2 using Ctrough (observed plasma concentration immediately before dosing) levels, where sufficient samples existed to determine steady state. The following timepoints were used in the analysis for once daily dosing: 24, 48, and 72 hours post dose (for Day 1) and pre-dose and 24 hours post dose on the last day of dosing (Day 7).

For `COc1cc(-n2cnc(Nc3nc(N4CCC[C@H]4C(N)=O)nc4sccc34)c2)cc(OC)c1OC.O=C(O)CC(O)(CC(=O)O)C(=O)O` [Compound A], the “new HO bone formation” value (HO bone formation) was “significant reduction in new HO bone formation”, the oral bioavailability ([1]; nonclinical PK studies) was “orally bioavailable” and the “accumulation with repeated dosing” value ([1]; repeated dosing up to 28 days, toxicokinetic assessments) was “do not accumulate”. The CYP2A6 inhibition (CYP2A6) was “not an inhibitor”, the “Day 1 AUC0-24, geometric least square mean” value ([2]; 5 mg QD) was 797.89 ng·h/mL and the “Day 7 AUCtau, geometric least square mean” value (“Day 7 AUCtau” below) ([2]; 5 mg QD) was 915.48 ng·h/mL. For the same molecule, the “Day 1 AUC0-24, geometric least square mean” value ([2]; 10 mg QD) was 1703.36 ng·h/mL, the “Day 7 AUCtau” value ([2]; 10 mg QD) was 2022.93 ng·h/mL and the “Day 1 AUC0-24, geometric least square mean” value ([2]; 15 mg QD) was 2204.47 ng·h/mL. The “Day 7 AUCtau” value ([2]; 15 mg QD) was 2303.26 ng·h/mL, the “Day 1 AUC0-24, geometric least square mean” value ([2]; 20 mg QD) was 3159.74 ng·h/mL and the “Day 7 AUCtau” value ([2]; 20 mg QD) was 3184.88 ng·h/mL. For the same molecule, the “median Tmax” value ([2]; Part 2, Days 1 and 7, all dosing cohorts) was “approximately 2.0 hours”, the “time to steady state” value ([2]; Part 2, QD dosing, from trough concentrations) was ≤ 3 days and the accumulation ([2]; Part 2, each MAD cohort, 7 days QD) was “No accumulation or minimal accumulation”. For the same molecule, the “dose proportionality of plasma exposure” value ([2]; Part 2, multiple oral doses 5 to 20 mg, healthy subjects) was “exhibits dose proportionality; also recorded: approximately linear and dose proportional”, the Cmax ([2]; Day 1, 5 mg QD oral, fasted) was 105.0 (45.9) ng/ml and the AUC0-24 ([2]; Day 1, 5 mg QD) was 797.9 (37.8) ng · h/mL. The Tmax ([2]; Day 1, 5 mg QD) was 2.009 (1.01, 4.01) h, the Cmax ([2]; Day 1, 10 mg QD oral, fasted) was 217.0 (46.2) ng/ml and the AUC0-24 ([2]; Day 1, 10 mg QD) was 1703 (37.4) ng · h/mL. For the same molecule, the Tmax ([2]; Day 1, 10 mg QD) was 2.009 (2.01, 3.01) h, the Cmax ([2]; Day 1, 15 mg QD oral, fasted) was 324.2 (34.9) ng/ml and the AUC0-24 ([2]; Day 1, 15 mg QD) was 2204 (39.0) ng · h/mL. For the same molecule, the Tmax ([2]; Day 1, 15 mg QD) was 2.006 (1.01, 4.00) h, the Cmax ([2]; Day 1, 20 mg QD oral, fasted) was 464.1 (26.1) ng/ml and the AUC0-24 ([2]; Day 1, 20 mg QD) was 3160 (21.2) ng · h/mL. For the same molecule, the Tmax ([2]; Day 1, 20 mg QD) was 2.007 (2.00, 3.00) h, the AUCtau ([2]; Day 7, 5 mg QD) was 915.5 (40.7) ng · h/mL and the Cmax ([2]; Day 7, 5 mg QD) was 117.0 (44.4) ng/ml. For the same molecule, the Ctau ([2]; Day 7, 5 mg QD) was 10.70 (72.6) ng/ml, the Tmax ([2]; Day 7, 5 mg QD) was 2.007 (1.01, 3.03) h and the t1/2 ([2]; Day 7, 5 mg QD) was 8,846 (4.73, 25.1) h. The AUCtau ([2]; Day 7, 10 mg QD) was 2023 (29.7) ng · h/mL, the Cmax ([2]; Day 7, 10 mg QD) was 238.0 (22.6) ng/ml and the Ctau ([2]; Day 7, 10 mg QD) was 25.47 (68.1) ng/ml. For the same molecule, the Tmax ([2]; Day 7, 10 mg QD) was 2.021 (2.01, 3.01) h, the t1/2 ([2]; Day 7, 10 mg QD) was 8.512 (6.09, 12.3) h and the AUCtau ([2]; Day 7, 15 mg QD) was 2303 (24.9) ng · h/mL. The Cmax ([2]; Day 7, 15 mg QD) was 333.5 (29.7) ng/ml, the Ctau ([2]; Day 7, 15 mg QD) was 19.02 (59.6) ng/ml and the Tmax ([2]; Day 7, 15 mg QD) was 2.006 (1,01, 3.00) h. For the same molecule, the t1/2 ([2]; Day 7, 15 mg QD) was 7.534 (4.05, 12.2) h, the AUCtau ([2]; Day 7, 20 mg QD) was 3185 (24.4) ng · h/mL and the Cmax ([2]; Day 7, 20 mg QD) was 413.9 (14.9) ng/ml. The Ctau ([2]; Day 7, 20 mg QD) was 30.75 (66.5) ng/ml, the Tmax ([2]; Day 7, 20 mg QD) was 2.001 (1.00, 3.00) h and the t1/2 ([2]; Day 7, 20 mg QD) was 8.332 (4.61, 11.0) h. For the same molecule, the “dose proportionality of steady state Cmax” value ([2]; Part 2 multiple ascending oral dose cohorts (FIG. 7)) was “approximately linear and dose-proportional” and the “dose proportionality of steady state AUCtau” value ([2]; Part 2 multiple ascending oral dose cohorts (FIG. 8)) was “approximately linear and dose-proportional”.
